Measurements reported in patent publication US6191152A, “2-(1,2,4-triazole-1-yl)-1,3,4-thiadiazole derivatives having an effect on the C.N.S. and the heart” (EGIS Gyogyszergyar Rt., priority 1997, dated 2001).
Structures can show the parent of a compound that is named as a salt.

Tests used:
[1] = system: isolated guinea-pig papillary muscle; experiment: Effective refractory period (ERP) prolonging effect in isolated guinea-pig right ventricular papillary muscle, in vitro; parameters: species or system guinea-pig (male); conditions: for ERP change at 10^-4 M / ERP change at 10^-5 M: 30 minutes incubation, mean of at least four preparations
Excerpt: 2. Measurement of Effective Refracter Period in Guinea-pig Right Ventricular Papillary Muscle, in Vitro.
Effective refracter period (ERP) is regarded to be the shortest time interval between two identical electrical stimuli when both can evoke a twitch in the papillary muscle. A second stimulus applied earlier than the ERP is not effective. Compounds prolonging ERP can have antiarrhythmic effect. This method is useful primarily for testing antiarrhythmic agents belonging to class III according to the Vaughan Williams classification /Bexton, R. S. and Camm. A., J. Pharmacol. Ther., 17, 315 (1982)/.
Experiments were performed in a Schuler-type organ bath system having 4 channels. Male guinea-pigs weighing 450 to 750 g were killed by a blow on the head and ensanguinated. The heart was rapidly excised and papillary muscles of appropriate size (lower than 1 mm in diameter) were dissected from the right ventricle. The preparations were vertically mounted in 20 ml organ chambers containing Krebs solution bubbled with carbogen (consisting of 95% of O2 and 5% of CO2) and maintained at 35° C. The upper end of the muscles was connected with cotton threads to force-displacement transducers coupled to a recorder for measuring isometric tension via DC-bridge amplifiers. The lower end of the papillary muscles was pinned to the organ chamber with a silver hook that was also used as a stimulating electrode. The other electrode was immersed into the organ bath and had no direct contact with the preparation. The composition of the Krebs solution was the following (in mm): NaCl 118, KCl 4.8, NaHCO3 27.2, glucose 11.1, MgSO4 1.2, KH2 PO4 1, CaCl2 2.6, pH=7.4.
The preparations were equilibrated for 120 minutes under a resting tension of 1 g. During equilibration they were electrically stimulated at a rate of 2 Hz with 1 msec rectangular pulses that were above the diastolic threshold voltage by 10%. ERP was determined using a standard extrastimulus technique. Extrastimuli (S2) were interjected between the normal stimuli (S1) in such a way that the S1 -S2 interval was initially below the refracter period of the tissue. The S1 -S2 interval was then widened by increments of 1 msec until the extrastimulus (S2) evoked twitch of the papillary muscle. The force of the twitch caused by S2 is larger than those caused by normal (S1) stimuli (postextrasystolic potentiation). The equipment measured the shortest S1 -S2 interval at which the extrastimulus evoked a twitch that was larger than the force of control twitches by 25%. This interval is equivalent with the ERP.
The experimental protocol was as follows:
Two control ERP measurements were performed 20 minutes apart, then appropriate amount of the test substance was added to produce 10^-4 M concentration in the bathing solution. After 30 minutes incubation with the test substance, two ERP measurements were performed 30 minutes apart.
When the test substance increased ERP at 10^-4 M by 40 msec or more, its effect on ERP was tested also at 10^-5 M.
The effect of the test substances was characterized by the difference between the first treated and the second control measurements. Individual data obtained from four different preparations, at least, were averaged. The reference substance used was sotalol i.e. N-[4-/1-hydroxy-2-(1-methylethylamino)ethyl/plenyl]methane sulfonamide.

[2] = system: isolated rat thoracic aorta; experiment: Vascular relaxing effect in potassium chloride (20 mM KCl) contracted isolated rat thoracic aorta; parameters: species or system rat (male SPRD); conditions: for IC50: Rattus norvegicus, 20 mM KCl contracted strips, 37° C., read-out: IC50 (vascular relaxation in isolated rat thoracic aorta)
Description: 1. Measurement of Vascular Relaxing Effect in Potassium Chloride Contracted Isolated rat Thoracic Aorta
Experiments were performed in thoracic aortas obtained from male SPRD rats weighing 250 to 300 g. Thoracic aortas excised from rats killed by decapitation and ensanguination were cleaned of fat and connective tissue, then were immediately placed in carbogenized TYRODE solution. The composition of the normal TYRODE solution was the following (in mM): NaCl 114.7, KCl 3.7, CaCl2 3.6, MgCl2 0.49, NaHCO3 19.9, NaH2 PO4 0.32, glucose 5.1.
Two mm wide and 20 to 25 mm long strips were cut from the aortas along a helical line at 45° angle. Aortic strips were mounted vertically between two cotton threads in 10 ml organ chambers, the lower threads were attached to the organ chambers and the upper threads were connected to isometric force transducers. The strips were incubated under 1 g resting tension at 37° C. for 120 minutes, then resting vascular tone was recorded. Then the strips were contracted with a TYRODE solution containing 20 mM KCl. The composition of the high potassium TYRODE solution was the following (in mM): NaCl 94.7, KCl 20, CaCl2 3.6, MgCl2 0.49, NaHCO3 19.9, NaH2 PO4 0.32, glucose 5.1.
When stable vascular tone developed, increasing doses of the test substance were added to the organ bath. The effects of each test substance were measured at least in 3 tissue preparations obtained from different animals. Decreases in vascular tension caused by the test substances were expressed as percentage changes and IC50 for each tissue preparation was determined by sigmoid (in few casses linear) curve fitting.
For comparison, cromakalim i.e. (±)-trans-3,4-dihydro-3-hydroxy-2,2-dimethyl-4-(2-oxo-1-pyrrolidinyl)-2H-1-benzopyrane-6-carbonitrile was used.

[3] = system: isolated Langendorff rat hearts; experiment: Cardioprotective effect (time to contracture, TTC) in globally ischemic isolated Langendorff rat hearts; parameters: species or system rat (male Wistar); conditions: for TTC change vs vehicle (%) at 10 µM / TTC change vs vehicle (%) at 1 µM: Rattus norvegicus, compared to the vehicle treated group; for TTC change vs vehicle (%) at 10 µM: 10^-5 M; for TTC change vs vehicle (%) at 1 µM: 10^-6 M
Excerpt: 3. Measurement of Cardioprotective Effect in Ischemic rat Heart (Langendorff) Preparation
If the blood supply to a part of the myocardium is interrupted (e.g. during myocardial infarction), then the intracellular calcium concentration starts to rise and gradually attains pathophysiological levels. Myocardial contraction is regulated by calcium, therefore, high intracellular calcium concentration results in contracture of the myocardium. In isolated rat hearts, contracture develops in about 10 minutes after starting global ischemia, and this period is called time to contracture (TTC). Any substance which can inhibit the rise of intracellular calcium concentration and the development of contracture caused by high calcium concentration during ischemia protects the myocardium from impairment i.e. it has cardioprotective effect. Under experimental conditions,the cardioprotective effect of drugs is shown by their ability to prolong TTC. The cardioprotective effect of the compounds of the invention was examined by measuring TTC in globally ischemic Langendorff rat hearts/Longman, S. D. and Hamilton, T. C., Medicinal Research Reviews, 12, 73-148 (1992)/.
Male Wistar rats weighing 300 to 350 g were injected with 2500 IU (0.5 ml) of heparin i.p. and 10 minutes later they were anaesthetized with sodium pentobarbital/5-ethyl-5-(1-methylbutyl)-2,4,6(1H,3H,5H)-pyrimidinetrione sodium salt/in a dose of 60 mg/kg i.p. The heart was quickly excised and connected to a Langendorff apparatus via the aorta. The hearts were perfused at a constant perfusion pressure (60 mmHg) and temperature (37° C.) with a modified Krebs-Henseleit solution gassed with 95% of O2 and 5% of CO2. The composition of the modified Krebs-Henseleit solution was the following (in mM): NaCl 118, KCl 4.7, CaCl2 2.5, NaHCO3 24.88, KH2 PO4 1.18, MgSO4 1.6, EDTA 0.5 and glucose 11. Partial O2 and CO2 pressures and also pH were measured and maintained within normal limits (pO2 ==64000-77000 Pa, pCO2 =3800-4500 Pa, pH=7.3-7.45). A hole was cut in the wall of the left atrium and a water-filled plastic balloon attached to a metal cannula was then inserted into the left ventricle via the left atrium for measuring left ventricular pressure. End diastolic pressure was set to about 645 Pa, and adjusted for during the equilibration period but not later.
After a 20 minutes equilibration period, the hearts were perfused for 10 minutes with the test substance at 10^-5 or 10^-6 concentration or with the vehicle (0.04% of dimethyl sulfoxide). Global ischemia was initiated by completely shutting off the perfusate flow and carbogenization for 25 minutes. During ischemia, the time period from the beginning of ischemia until 645 Pa increase in left ventricular end diastolic pressure was measured (TTC).
Three experiments were performed with the test substances at each concentration and parameters of 3 additional vehicle treated hearts were measured along with the test substance.
Individual TTC values were averaged and the effect of the test substances was expressed as a percentage change compared to the vehicle treated group. Compounds that prolong TTC are cardioprotective. As a reference substance, lemakalim i.e. (3S)-trans-3,4-dihydro-3-hydroxy-2,2-dimethyl-4-(2-oxo-1-pyrrolidinyl)-2H- 1-benzpyrane-6-carbonitrile was used.

Structure (SMILES)	ERP change at 10^-4 M [1] [msec]	ERP change at 10^-5 M [1] [msec]	IC50 [2] [µM]	TTC change vs vehicle (%) at 10 µM [3] [%]	TTC change vs vehicle (%) at 1 µM [3] [%]	ERP prolongation (in words) [1]	TTC prolongation (in words) [3]	vascular relaxation of isolated rat thoracic aorta (in words) [2]
CN1CCN(c2nc(N)n(-c3nnc(-c4c(Cl)cccc4Cl)s3)n2)CC1 [Example 10, 2-/5-Amino-3-(4-methylpiperazino)-1H-1,2,4-triazole-1-yl/ -5-(2,6-dichlorophenyl)-1,3,4-thiadiazole hydrochloride monohydrate]	120	32	> 10	74	47	–	–	–
CSc1nc(N)n(-c2nnc(-c3cccc(OCCCN(C)C)c3)s2)n1 [Example 26, 2-(5-Amino-3-methylthio-1H-1,2,4-triazole-1-yl)-5-/ 3-(3-dimethylaminopropoxy)phenyl/-1,3,4-thiadiazole hydrochloride]	148	21	> 10	41	33	prolonged not only TTC but ERP as well	prolonged not only TTC but ERP as well	–
CSc1nc(N)n(-c2nnc(-c3ccccc3OCCCN(C(C)C)C(C)C)s2)n1 [Example 45, 2-(5-Amino-3-methylthio-1H-1,2,4-triazole-1-yl)-5-[2-/ 3-di(2-methylethyl)aminopropoxy/phenyl]-1,3,4-thiadiazole]	–	–	> 1	31	30	–	–	–
CCN(CCO)CCOc1ccccc1-c1nnc(-n2nc(N3CCCCC3)nc2N)s1 [Example 90, 2-(5-Amino-3-piperidino-1H-1,2,4-triazole-1-yl)-5-{2-[2-/ 2-ethyl-2-(2-hydroxyethyl)amino/ethoxy]phenyl}-1,3,4-thiadiazole]	–	–	> 10	36	19	–	–	–
Nc1nc(N2CCCCC2)nn1-c1nnc(-c2ccccc2OCCNCCN2CCOCC2)s1 [Example 91, 2-(5-Amino-3-piperidino-1H-1,2,4-triazole-1-yl)-5-[2-/ 2-(2-morpholinoethyl)amino/ethoxy]phenyl-1,3,4-thiadiazole]	–	–	> 1	–	58	–	–	–
CC1(C)Oc2ccc(C#N)cc2[C@@H](N2CCCC2=O)[C@@H]1O [lemakalim, (3S)-trans-3,4-dihydro-3-hydroxy-2,2-dimethyl-4-(2-oxo-1-pyrrolidinyl)-2H-1-benzpyrane-6-carbonitrile, reference compound]	–	–	–	55	20	–	prolonged not only TTC	considerably relaxed isolated rat thoracic aorta
